Consider 1 molecule from patent US8058307B2, “Alcanoic acid amides substituted by saturated O-heterocycles” (Novartis AG, priority 2005, dated 2011).

This experiment has as its target T1, renin (Homo sapiens, UniProt P00797).
T1 construct: This test measures the formation of angiotensin I in human plasma; from tissue; host or cells: human plasma
T1 sequence (P00797 67-406): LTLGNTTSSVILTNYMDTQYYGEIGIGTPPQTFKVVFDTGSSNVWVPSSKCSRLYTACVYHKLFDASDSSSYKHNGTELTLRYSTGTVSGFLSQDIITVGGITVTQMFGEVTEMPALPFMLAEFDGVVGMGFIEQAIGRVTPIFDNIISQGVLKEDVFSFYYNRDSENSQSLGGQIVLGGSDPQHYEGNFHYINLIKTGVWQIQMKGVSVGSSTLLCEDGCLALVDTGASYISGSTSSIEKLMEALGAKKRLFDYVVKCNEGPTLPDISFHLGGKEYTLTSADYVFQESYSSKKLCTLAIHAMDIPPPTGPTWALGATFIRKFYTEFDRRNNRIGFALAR
Briefly: in vitro test of Nussberger et al.: formation of angiotensin I in human plasma, radio-immunoassay. It is filed as biochemical. The following applies: concentration which reduces the formation of angiotensin I in human plasma by 50%. On the procedure: The effect of renin inhibitors is detected inter alia experimentally by means of in vitro tests where the reduction in the formation of angiotensin I is measured in various systems (human plasma, purified human renin together with synthetic or natural renin substrate). The following in vitro test of Nussberger et al. (1987) J. Cardiovascular Pharmacol., Vol. 9, pp. 39-44, is used inter alia. This test measures the formation of angiotensin I in human plasma. The amount of angiotensin I formed is determined in a subsequent radio-immunoassay. The effect of inhibitors on the formation of angiotensin I is tested in this system by adding various concentrations of these substances. The IC50 is defined as the concentration of the particular inhibitor which reduces the formation of angiotensin I by 50%.

With `COCCCOc1cc(C[C@@H](C[C@H](N)[C@@H](O)C[C@H](C(=O)NC[C@H]2CCCO2)C(C)C)C(C)C)ccc1OC` [Example 1, 5-Amino-4-hydroxy-2-isopropyl-7-[4-methoxy-3-(3-methoxypropoxy)benzyl]-8-methyl-N-(tetrahydrofuran-2(R)-ylmethyl)nonamide], half-maximal inhibition (IC50) required 2.6 nM. This lies in the single-digit nanomolar range.

The term IC50 denotes the concentration that gives 50% inhibition. A high value points to weaker potency in that assay.
